Results on 23 compounds are retold here after patent US10189840B2, “Substituted tricyclic heterocyclic compounds” (BRISTOL-MYERS SQUIBB COMPANY, priority 2015, dated 2019).

As usually defined, the IC50 is the concentration needed to halve the response being measured. A low value points to greater potency in that assay.

TNFα, sequence (P01375 77-233): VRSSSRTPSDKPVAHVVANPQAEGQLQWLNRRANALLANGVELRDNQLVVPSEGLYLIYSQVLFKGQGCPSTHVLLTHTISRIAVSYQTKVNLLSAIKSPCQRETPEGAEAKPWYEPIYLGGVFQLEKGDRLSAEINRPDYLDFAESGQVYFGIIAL

The target in this assay is TNFα (Homo sapiens (Human), UniProt P01375). The assay can be described thus: TNF induced HEK-Blue assay. In kind it is cell-based. The following applies: TNFα 0.5 ng/ml; HEK-Blue-CD40L cells, NF-κB-driven secreted alkaline phosphatase reporter; 18 h. As to the method:
Test compounds serially diluted in DMSO were plated in an assay plate (Labcyte, Cat. #LP-0200) at final concentrations ranging from 0.004 μM to 25 μM. TNFα (final concentration 0.5 ng/ml) or CD40L (final concentration 30 ng/ml) in assay buffer [DMEM, 4.5 g/l glucose (Gibco, Cat. 21063-029), 10% FBS (Sigma, F4135), 1% Penicillin-Streptomycin (Gibco, Cat. 15140-122), 1% Anti-Anti (Gibco, Cat. 15240-112) and 2 mM L-glutamine (Gibco, Cat. 25030-081)] was then added to the assay plate. After a 30 minute pre-incubation at 37° C. and 5% CO2, HEK-Blue-CD40L cells (InvivoGen, Cat. Code hkb-cd40) containing a NF-κB-driven secreted alkaline phosphatase reporter gene were seeded into the assay plate at a density of 20,000 cells per well. This plate was then incubated for 18 h at 37° C. and 5% CO2. Secreted alkaline phosphatase expression was measured using QUANTI-Blue (InvivoGen, Cat. Code rep-qb1) according to manufacturer's specifications and the assay plate was read on a PerkinElmer Envision at 620 nm.
Inhibition data for the test compound over a range of concentrations was plotted as percentage inhibition of the test compound (100%=maximum inhibition). IC50 values were determined after correcting for background [(sample read−mean of low control)/(mean of high control−mean of low control)] where by the low control is DMSO without stimulation and high control is DMSO with stimulation. The IC50 is defined as the concentration of test compound which produces 50% inhibition and was quantified using the 4 parameter logistic equation to fit the data.
Table 5 lists the IC50 values measured in the TNF induced HEK-Blue assay for Examples 1 to 40 of this invention.
Take `COc1ccccc1C1CC(O)c2nc3ccc(-c4ccc(C(C)(C)O)cc4)nc3n21` (single isomer, unassigned) [Example 12 (e3), 2-(4-(2-hydroxypropan-2-yl)phenyl)-8-(2-methoxyphenyl)-7,8-dihydro-6H-pyrrolo[2′,1′:2,3]imidazo[4,5-b]pyridin-6-ol]: the IC50 was 10000 to 25000 nM.
`COc1ccccc1C1CC(O)c2nc3ccc(-c4ccc(C(C)(C)O)cc4)nc3n21` (single isomer, unassigned) [Example 12 (e4), 2-(4-(2-hydroxypropan-2-yl)phenyl)-8-(2-methoxyphenyl)-7,8-dihydro-6H-pyrrolo[2′,1′:2,3]imidazo[4,5-b]pyridin-6-ol] yielded an IC50 of 1000 to 10000 nM.
To `CC(C)(O)c1ccc(-c2ccc3nc4n(c3n2)C(c2cc(F)ccc2C(F)(F)F)CC4O)cc1` (single isomer, unassigned) [Example 13 (e1), 8-(5-fluoro-2-(trifluoromethyl)phenyl)-2-(4-(2-hydroxypropan-2-yl)phenyl)-7,8-dihydro-6H-pyrrolo[2′,1′:2,3]imidazo[4,5-b]pyridin-6-ol] belongs below 1000 nM; to `CC(C)(O)c1ccc(-c2ccc3nc4n(c3n2)C(c2cc(F)ccc2C(F)(F)F)CC4O)cc1` (single isomer, unassigned) [Example 13 (e2), 8-(5-fluoro-2-(trifluoromethyl)phenyl)-2-(4-(2-hydroxypropan-2-yl)phenyl)-7,8-dihydro-6H-pyrrolo[2′,1′:2,3]imidazo[4,5-b]pyridin-6-ol], 1000 to 10000 nM.
Then `CC(C)(O)c1ccc(-c2ccc3nc4n(c3n2)C(c2cc(F)ccc2C(F)(F)F)CC4O)cc1` (single isomer, unassigned) [Example 13 (e3), 8-(5-fluoro-2-(trifluoromethyl)phenyl)-2-(4-(2-hydroxypropan-2-yl)phenyl)-7,8-dihydro-6H-pyrrolo[2′,1′:2,3]imidazo[4,5-b]pyridin-6-ol], with 1000 to 10000 nM; and `CC(C)(O)c1ccc(-c2ccc3nc4n(c3n2)C(c2cc(F)ccc2C(F)(F)F)CC4O)cc1` (single isomer, unassigned) [Example 13 (e4), 8-(5-fluoro-2-(trifluoromethyl)phenyl)-2-(4-(2-hydroxypropan-2-yl)phenyl)-7,8-dihydro-6H-pyrrolo[2′,1′:2,3]imidazo[4,5-b]pyridin-6-ol], with 1000 to 10000 nM; and `CC(C)(O)c1ccc(-c2ccc3nc4n(c3n2)C(c2ccccc2C(F)(F)F)CC4F)cc1` (single isomer, unassigned) [Example 14 (e1), 2-(4-(6-Fluoro-8-(2-(trifluoromethyl)phenyl)-7,8-dihydro-6H-pyrrolo[2′,1′:2,3]imidazo[4,5-b]pyridin-2-yl)phenyl)propan-2-ol], with 1000 to 10000 nM.
To `CC(C)(O)c1ccc(-c2ccc3nc4n(c3n2)C(c2ccccc2C(F)(F)F)CC4F)cc1` (single isomer, unassigned) [Example 14 (e2), 2-(4-(6-Fluoro-8-(2-(trifluoromethyl)phenyl)-7,8-dihydro-6H-pyrrolo[2′,1′:2,3]imidazo[4,5-b]pyridin-2-yl)phenyl)propan-2-ol] belongs below 1000 nM; to `CC(C)(O)c1ccc(-c2ccc3nc4n(c3n2)C(c2ccccc2C(F)(F)F)CC4F)cc1` (single isomer, unassigned) [Example 14 (e3), 2-(4-(6-Fluoro-8-(2-(trifluoromethyl)phenyl)-7,8-dihydro-6H-pyrrolo[2′,1′:2,3]imidazo[4,5-b]pyridin-2-yl)phenyl)propan-2-ol], 1000 to 10000 nM.
Regarding `CC(C)(O)c1ccc(-c2ccc3nc4n(c3n2)C(c2ccccc2C(F)(F)F)CC4F)cc1` (single isomer, unassigned) [Example 14 (e4), 2-(4-(6-Fluoro-8-(2-(trifluoromethyl)phenyl)-7,8-dihydro-6H-pyrrolo[2′,1′:2,3]imidazo[4,5-b]pyridin-2-yl)phenyl)propan-2-ol], the IC50 was below 1000 nM.
Take `CC(C)(O)c1ccc(-c2ccc3nc4n(c3n2)C(c2ccccc2OC(F)F)CC4F)cc1` (single isomer, unassigned) [Example 15 (e2), 2-(4-(8-(2-(difluoromethoxy)phenyl)-6-fluoro-7,8-dihydro-6H-pyrrolo[2′,1′:2,3]imidazo[4,5-b]pyridin-2-yl)phenyl)propan-2-ol]: the IC50 was 10000 to 25000 nM.
Then `COc1ccc(-c2ccc3nc4n(c3n2)C(c2ccccc2OC(F)F)CC4F)cn1` (single isomer, unassigned) [Example 18 (e1), 8-(2-(difluoromethoxy)phenyl)-6-fluoro-2-(6-methoxypyridin-3-yl)-7,8-dihydro-6H-pyrrolo[2′,1′:2,3]imidazo[4,5-b]pyridine], with below 1000 nM; and `COc1ccc(-c2ccc3nc4n(c3n2)C(c2ccccc2OC(F)F)CC4F)cn1` (single isomer, unassigned) [Example 18 (e2), 8-(2-(difluoromethoxy)phenyl)-6-fluoro-2-(6-methoxypyridin-3-yl)-7,8-dihydro-6H-pyrrolo[2′,1′:2,3]imidazo[4,5-b]pyridine], with 10000 to 25000 nM.
Then `CC(C)(O)c1ccc(-c2ccc3nc4n(c3n2)C(c2ccccc2C2CC2)CC4F)cc1` (single isomer, unassigned) [Example 21 (e1), 2-(4-(8-(2-cyclopropylphenyl)-6-fluoro-7,8-dihydro-6H-pyrrolo[2′,1′:2,3]imidazo[4,5-b]pyridin-2-yl)phenyl)propan-2-ol], with below 1000 nM.
Then `CC(C)(O)c1ccc(-c2ccc3nc4n(c3n2)C(c2ccccc2C2CC2)CC4F)cc1` (single isomer, unassigned) [Example 21 (e2), 2-(4-(8-(2-cyclopropylphenyl)-6-fluoro-7,8-dihydro-6H-pyrrolo[2′,1′:2,3]imidazo[4,5-b]pyridin-2-yl)phenyl)propan-2-ol], with 1000 to 10000 nM; and `CC(C)(O)c1ccc(-c2ccc3nc4n(c3n2)C(c2ccccc2C2CC2)CC4F)cc1` (single isomer, unassigned) [Example 21 (e4), 2-(4-(8-(2-cyclopropylphenyl)-6-fluoro-7,8-dihydro-6H-pyrrolo[2′,1′:2,3]imidazo[4,5-b]pyridin-2-yl)phenyl)propan-2-ol], with below 1000 nM; and `CC(C)(O)c1ccc(-c2ccc3nc4n(c3n2)C(c2ccccc2OC(F)(F)F)CC4F)cc1` (single isomer, unassigned) [Example 22 (e1), 2-(4-(6-fluoro-8-(2-(trifluoromethoxy)phenyl)-7,8-dihydro-6H-pyrrolo[2′,1′:2,3]imidazo[4,5-b]pyridin-2-yl)phenyl)propan-2-ol], with below 1000 nM.
In turn, `CC(C)(O)c1ccc(-c2ccc3nc4n(c3n2)C(c2ccccc2OC(F)(F)F)CC4F)cc1` (single isomer, unassigned) [Example 22 (e2), 2-(4-(6-fluoro-8-(2-(trifluoromethoxy)phenyl)-7,8-dihydro-6H-pyrrolo[2′,1′:2,3]imidazo[4,5-b]pyridin-2-yl)phenyl)propan-2-ol] showed an IC50 of 1000 to 10000 nM.
The compound `CC(C)(O)c1ccc(-c2ccc3nc4n(c3n2)C(c2ccccc2OC(F)(F)F)CC4F)cc1` (single isomer, unassigned) [Example 22 (e4), 2-(4-(6-fluoro-8-(2-(trifluoromethoxy)phenyl)-7,8-dihydro-6H-pyrrolo[2′,1′:2,3]imidazo[4,5-b]pyridin-2-yl)phenyl)propan-2-ol] had an IC50 below 1000 nM.
Then `CC(C)(O)c1ccc(-c2ccc3nc4n(c3n2)C(c2c(F)cccc2C(F)(F)F)CC4F)cc1` (single isomer, unassigned) [Example 23 (e2), 2-(4-(6-fluoro-8-(2-fluoro-6-(trifluoromethyl)phenyl)-7,8-dihydro-6H-pyrrolo[2′,1′:2,3]imidazo[4,5-b]pyridin-2-yl)phenyl)propan-2-ol], with 1000 to 10000 nM; and `CC(C)(O)c1ccc(-c2ccc3nc4n(c3n2)C(c2cc(F)ccc2C(F)(F)F)CC4F)cc1` (single isomer, unassigned) [Example 24 (e1), 2-(4-(6-fluoro-8-(5-fluoro-2-(trifluoromethyl)phenyl)-7,8-dihydro-6H-yrrolo[2′,1′:2,3]imidazo[4,5-b]pyridin-2-yl)phenyl)propan-2-ol], with 1000 to 10000 nM; and `CC(C)(O)c1ccc(-c2ccc3nc4n(c3n2)C(c2cc(F)ccc2C(F)(F)F)CC4F)cc1` (single isomer, unassigned) [Example 24 (e2), 2-(4-(6-fluoro-8-(5-fluoro-2-(trifluoromethyl)phenyl)-7,8-dihydro-6H-yrrolo[2′,1′:2,3]imidazo[4,5-b]pyridin-2-yl)phenyl)propan-2-ol], with 1000 to 10000 nM.
`CC(C)(O)c1ccc(-c2ccc3nc4n(c3n2)C(c2ccccc2C(F)(F)F)CC4)cc1` (single isomer, unassigned) [Example 25 (e1), 2-(4-(8-(2-(Trifluoromethyl)phenyl)-7,8-dihydro-6H-pyrrolo[2′,1′:2,3]imidazo[4,5-b]pyridin-2-yl)phenyl)propan-2-ol] showed a half-maximal inhibitory concentration (IC50) below 1000 nM.
